Like-named read-outs stand apart in the source and are kept apart here.
Tests used:
[1] = biological target: T1, Mushroom tyrosinase (Agaricus bisporus, UniProt C7FF04); assay: Tyrosinase assay (spectrophotometry, L-tyrosine substrate); format: biochemical
Experimental: Tyrosinase activity was determined by spectrophotometry, with minor modifications. First, 80 μL of 0.1 M potassium phosphate buffer (pH 6.6), 20 μL of sample dissolved in dimethyl sulfoxide at the concentrations needed (final concentrations 100–500 μg/mL), and 50 μL of L-tyrosine buffer (1.5 mM) solutions were mixed. Then, 50 μL of mushroom tyrosinase solution (200 unit/mL in phosphate buffer) was added to each mixture, which was then incubated at 25 °C for 15 min.
The results were expressed as mean ± standard deviation (SD), and were repeated three to five times. The inhibitory concentration (IC50) was calculated by log-Probit analysis.

[2] = test system: cyclooxygenase-1 (COX-1); set-up: method as in PMID 14646327; settings: in vitro; cited from earlier work
[3] = biological target: T1, Mushroom tyrosinase; assay: Tyrosinase assay (spectrophotometry, L-tyrosine substrate); format: biochemical; remark: listed apart in the source

T1 sequence (C7FF04 2-392): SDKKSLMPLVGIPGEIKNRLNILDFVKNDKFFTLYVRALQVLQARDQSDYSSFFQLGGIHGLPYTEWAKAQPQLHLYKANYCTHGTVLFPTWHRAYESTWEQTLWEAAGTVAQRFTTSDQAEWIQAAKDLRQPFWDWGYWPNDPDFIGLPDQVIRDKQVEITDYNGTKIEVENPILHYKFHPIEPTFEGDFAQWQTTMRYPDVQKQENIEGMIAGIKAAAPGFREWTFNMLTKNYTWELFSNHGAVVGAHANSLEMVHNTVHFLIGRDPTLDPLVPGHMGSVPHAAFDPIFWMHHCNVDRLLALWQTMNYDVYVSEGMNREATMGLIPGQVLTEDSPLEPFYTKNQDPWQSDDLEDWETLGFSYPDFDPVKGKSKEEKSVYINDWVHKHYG
T1 sequence (G1K3P4 1-150 partner): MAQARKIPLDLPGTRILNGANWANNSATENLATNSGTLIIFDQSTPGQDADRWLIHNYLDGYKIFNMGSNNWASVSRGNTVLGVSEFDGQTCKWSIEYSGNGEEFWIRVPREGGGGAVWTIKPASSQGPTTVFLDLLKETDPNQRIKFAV

`O=C(O)c1ccc(O)cc1` [p-Hydroxybenzoic acid (2), p-hydroxybenzoic acid] gave an inhibition at 100 µg/mL [1] of 8.3 ± 4.03%.

Work on `COc1cc(C(=O)O)ccc1O` [Vanilic acid (4), vanillic acid] yielded an inhibition at 100 µg/mL [1] of under 1%.

`O=C(/C=C/c1ccc(O)c(O)c1)O[C@@H]1C[C@](O)(C(=O)O)C[C@@H](O)[C@H]1O` [Chlorogenic acid (3), chlorogenic acid] showed an inhibition at 100 µg/mL [1] of under 1%.

In the case of `O=c1c(O)c(-c2ccc(O)c(O)c2)oc2cc(O)cc(O)c12` [Quercetin (7), quercetin], the “Inhibition (%)” value ([1]; 100 μg/mL, Table 4) is listed as 99.7 ± 0.28%, the “Inhibition (%)” value ([1]; 100 μg/mL, Table 4, listed as quercetin) is listed as “over 95%” and the “inhibition of cyclooxygenase-1 (COX-1)” value [2] is listed as 52% ± 2.

Work on `OC[C@H]1O[C@@H](Oc2ccc(O)cc2)[C@H](O)[C@@H](O)[C@@H]1O` [Arbutin, arbutin, reference compound] yielded an inhibition at 10 µg/mL [3] of 13.7 ± 1.8%, an inhibition at 50 µg/mL [3] of 63.8 ± 0.1% and an inhibition at 100 µg/mL [1] of 86 ± 1.6%. For the same compound, the inhibition at 500 µg/mL [1] was 98.2 ± 0.9% and the inhibition at 500 µg/mL ([1]; read-out: Inhibition % (500 μg/mL)) was 92.3 ± 2.2%.

In the case of `O=C(O)/C=C/c1ccc(O)c(O)c1` [Caffeic acid (5), caffeic acid], the inhibition at 100 µg/mL ([1]; 100 μg/mL, Table 4, read-out: Inhibition (%)) is reported as under 1%.

In the case of `O=C(O)c1ccc(O)c(O)c1` [Protocatechuic acid (1), protocatechuic acid], the inhibition at 100 µg/mL [1] is reported as under 1%.

`O=c1c(O)c(-c2ccc(O)cc2)oc2cc(O)cc(O)c12` [Kaempferol (8), kaempferol] gave an inhibition at 100 µg/mL [1] of 30 ± 1.97%.

`O=C(O)[C@H]1O[C@@H](Oc2c(-c3ccc(O)cc3)oc3cc(O)cc(O)c3c2=O)[C@H](O)[C@@H](O)[C@@H]1O` [Kaempferol 3-O-glucuronide (6), kaempferol 3-O-glucuronide] showed an inhibition at 100 µg/mL [1] of under 1%.

Source: PMC6155296, “Screening of Peruvian Medicinal Plants for Tyrosinase Inhibitory Properties: Identification of Tyrosinase Inhibitors in Hypericum laricifolium Juss” (Molecules : A Journal of Synthetic Chemistry and Natural …, 2017)
